PMC6452685, “Lysyl-tRNA synthetase as a drug target in malaria and cryptosporidiosis” (Proceedings of the National Academy of Sciences of the …, 2019)

What was measured:
[1] = target: CpKRS (Cryptosporidium parvum, UniProt Q5CR27); test: CpKRS SAR assay, luciferase ATP consumption (Kinase-Glo); format: biochemical
Procedure: (§1) We produced recombinant PfKRS1 (77–583 and 80–583), CpKRS (46-end), and HsKRS (full-length) proteins and developed biochemical assays based on the luciferase ATP consumption assay (Kinase-Glo; Promega) ([16]), which was suitable for the high-throughput screening, and the pyrophosphate generation assay (EnzChek) ([17]) format for kinetic characterization of the enzymes. The activities of recombinant enzymes were analyzed by monitoring only the first stage of the aminoacylation reaction. This reaction is suitable for high-throughput screening campaigns and makes the reaction more amenable for steady-state kinetic studies. By using the EnzChek assay, which monitors the production of pyrophosphate (when coupled with pyrophosphatase), Km values were obtained for PfKRS1, CpKRS, and HsKRS for ATP and L-lysine (Table 1 and SI Appendix, Fig. S1 and Table S1). […] This may be due to structural differences (see below) between the active sites of the parasite and human enzymes. […]
(§2) 2.7 PfKR S1, CpKRS and HsKR S S AR Ass ay Usin g L ucife r ase ATP C onsumption ( Kinase Glo ®) Inhi bi ti on of KRS acti vity by cl adospori n and other compou nds was assayed i n t he buffered me di um.
(§3) Each as s ay w el l was compos ed of b uffer (as des cri bed i n Ta bl e S3), 10 µM l ysi ne and ei ther 8.1 nM PfKRS1, 8.1 nM CpKRS or 6.6 nM HsKRS. […] The react i on w a s initiated by the addition of 2 µM ATP. The plate was incubated with shaking at 90 rpm and 30°C for 120 mi n. […] Maximum and minimum signal controls were included in each reaction plate. […] Analysis and calculation of inhibitors IC50 values were performed using Graphpad® Prism software (GraphPad S oftware, San Diego, CA). […]

[2] = target: T1, HsKRS (Homo sapiens, UniProt Q15046); test: HsKRS SAR assay, luciferase ATP consumption (Kinase-Glo); format: biochemical
T1 construct: HsKRS (full-length) proteins; 6xHis (N); made in house; host or cells: E. coli Rosetta BL21(DE3), vector pAVA0421 (UW); template pET28a-KRS
T1 sequence (Q15046 whole entry): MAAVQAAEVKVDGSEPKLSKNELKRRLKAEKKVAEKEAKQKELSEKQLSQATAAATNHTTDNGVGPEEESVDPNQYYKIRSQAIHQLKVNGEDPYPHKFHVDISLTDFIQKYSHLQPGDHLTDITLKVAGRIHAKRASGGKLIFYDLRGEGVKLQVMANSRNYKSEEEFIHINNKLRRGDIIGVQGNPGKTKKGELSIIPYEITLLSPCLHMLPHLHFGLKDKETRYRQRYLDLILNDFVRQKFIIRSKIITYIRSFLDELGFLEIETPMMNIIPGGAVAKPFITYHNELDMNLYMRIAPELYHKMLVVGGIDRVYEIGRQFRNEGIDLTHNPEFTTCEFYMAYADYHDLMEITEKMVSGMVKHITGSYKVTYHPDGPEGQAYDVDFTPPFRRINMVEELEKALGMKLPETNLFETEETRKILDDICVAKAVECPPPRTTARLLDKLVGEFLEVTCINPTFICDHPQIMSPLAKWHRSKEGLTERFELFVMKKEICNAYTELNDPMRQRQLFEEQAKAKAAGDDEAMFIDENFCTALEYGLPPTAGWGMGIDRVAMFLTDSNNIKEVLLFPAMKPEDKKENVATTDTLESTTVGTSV
Procedure: as §1, §2, §3

[3] = test system: Plasmodium falciparum 3D7; test: P. falciparum 3D7 growth inhibition (SYBR green I); format: cell-based; conditions: for EC50: Plasmodium falciparum, P. falciparum 3D7 bloodstream, read-out: Pf(3D7) EC50
Excerpt: (§4) 3.2 Cytotoxicity Studies (Dundee)
(§5) In vi t ro cy totox i ci ty s tudies can be ca rri ed out us i ng Hep G 2 (Human C aucas i an hepatocy te ca rci noma, ECACC cat. no. 850 114 30) us ed as i ndi cators f or g eneral mammal i an cel l tox i ci ty . […]
(§6) 3.3 In vitro Cell Assay D ata Analysis (Du ndee) […]
(§7) as 0%. Qual i ty control c ri teri a for passi ng pl ates were as fol l ow s : Z’ > 0.
(§8) < 15 . T he f ormula used to calculate Z’ is 1- 3´ (St D e v _ hi gh + St D e v_ low) . […]
(§9) Al l EC50 Curve fitti ng was undertaken usi ng XLFi t versi on 4.2 usi ng Model 205 wi th the foll owi ng 4 paramet ri c equat i on: A + (?-A) ,where A=% i nhi bi ti on at bo ttom, B=% i nhi bi ti on at top, C= EC , […]
(§10) D= slope, x= inhibitor concentration a nd y= % inhibition. […]
was fixed to 100 only when at least 50% of inhibition was reached.

[4] = test system: HepG2 cells; test: HepG2 cytotoxicity; format: cell-based; conditions: Homo sapiens
Excerpt: as §4, §5, §6, §7, §8, §9, §10
was fixed to 100 only when at least 50% of inhibition was reached. […]

[5] = Intrinsic clearance in mouse liver microsomes; format: in vitro ADME
Procedure: 4.4 Int r ins ic C le ar ance (CLi) experiments […]
HUE50H ). The procedure was carried out as reported prev i ous l y (15). […] Immediately, at time zero, then at 3, 6, 9, 15 and 30 min an aliquot ( 50 μl) o f the i ncubati on mi x ture was remov ed and mi x ed with acetonitrile (100 μl) contai ni ng i nternal s tandard to stop the reaction. […] XLfi t software (I DBS, Guildford UK) was used to cal cul ate the exponenti al decay and consequentl y the rate cons tant (ke-1) from the rati o of peak area of tes t compou nd to i nternal s tandard at each ti me poi nt .
The rate o f i ntri nsi c cl earance (CLi ) of each test compoun d was then cal cul ated usi ng the f ol l owi ng […]
CLi (ml /mi n/g li ver) = ke-1 x V x Microsomal protein yield […]
where V (ml/mg protein) is the incubation volume/mg protein added (0.5) and microsomal protein yield is taken as being 52.5 mg protein per g liver. Verapami l (0. 5 µ M ) w as us ed as a pos i t i v e cont rol to confirm ac ceptable assay performance. […]
Cryopreserved mouse (batch MC539) and huma n (batch HU E50H) hepatocytes were supplied by ThermoFi sher Sci enti fi c, Pai sl ey, UK and Xenotech, LLC, respectively. Cryopreserved hepatocytes were rapidly thawed in a pre-heat ed w at er bat h at 37 °C before ad di ng to 50 ml of pre-warmed CHRM medi a (ThermoFi sher Sci enti fi c, Paisley, UK) and mi xed gentl y. […] […] 5 mi l li on v i abl e cel l s /ml i n s uppl emented W ME. Onl y s us pens i ons whi ch ac hi ev ed >80% pos t-thaw viability were us ed i n ex peri ment s . […]
DMSO and 0.25 million cells/ml. […]

[6] = target: PfKRS1 (Plasmodium falciparum, UniProt Q8IDJ8); test: PfKRS1 SAR assay, luciferase ATP consumption (Kinase-Glo); format: biochemical; design: recombinant PfKRS1 (77–583 and 80–583); 6xHis (N); made in house; host or cells: E. coli Rosetta BL21(DE3), vector pAVA0421; conditions: for IC50: Kinase-Glo assay
Sequence of PfKRS1 (Q8IDJ8 77-583): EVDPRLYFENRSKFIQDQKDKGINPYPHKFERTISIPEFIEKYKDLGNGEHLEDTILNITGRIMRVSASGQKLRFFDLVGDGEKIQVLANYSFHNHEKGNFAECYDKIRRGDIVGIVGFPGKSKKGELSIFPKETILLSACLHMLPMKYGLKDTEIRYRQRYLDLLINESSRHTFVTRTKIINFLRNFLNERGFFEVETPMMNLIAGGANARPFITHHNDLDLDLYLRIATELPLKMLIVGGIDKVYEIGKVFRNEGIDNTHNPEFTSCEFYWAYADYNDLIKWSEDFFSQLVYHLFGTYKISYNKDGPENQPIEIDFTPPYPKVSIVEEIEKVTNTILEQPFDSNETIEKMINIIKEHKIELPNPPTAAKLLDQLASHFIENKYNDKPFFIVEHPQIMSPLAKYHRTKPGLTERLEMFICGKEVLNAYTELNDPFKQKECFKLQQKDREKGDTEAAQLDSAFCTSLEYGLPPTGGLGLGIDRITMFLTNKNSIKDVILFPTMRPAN
Procedure: as §1, §2, §3

Sequence of CpKRS (Q5CR27 entry or part of it): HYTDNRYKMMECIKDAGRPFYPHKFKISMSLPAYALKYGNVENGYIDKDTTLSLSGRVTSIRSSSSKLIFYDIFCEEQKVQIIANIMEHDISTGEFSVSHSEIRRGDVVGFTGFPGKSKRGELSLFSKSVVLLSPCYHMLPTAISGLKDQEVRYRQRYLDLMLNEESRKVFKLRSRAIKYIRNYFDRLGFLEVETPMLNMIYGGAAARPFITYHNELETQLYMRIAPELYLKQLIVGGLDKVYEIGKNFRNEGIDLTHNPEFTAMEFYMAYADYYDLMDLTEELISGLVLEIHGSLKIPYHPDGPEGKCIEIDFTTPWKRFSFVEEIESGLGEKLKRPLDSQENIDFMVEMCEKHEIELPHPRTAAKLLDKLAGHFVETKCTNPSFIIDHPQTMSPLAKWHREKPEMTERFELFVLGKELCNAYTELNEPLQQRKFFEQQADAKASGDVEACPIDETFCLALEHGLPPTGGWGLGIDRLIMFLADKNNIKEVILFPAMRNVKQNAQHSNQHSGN

SMILES	IC50 [1]	IC50 [2]	EC50 [3]	EC50 [4]	MLM CLi [5]	IC50 [6]	Microsomal stability CLint [5]	cellular selectivity between P. falciparum parasites and human HepG2 cells [3]	selectivity ratio for HsKRS/PfKRS1 ([6]; in Kinase-Glo)
C[C@H]1CCC[C@H](C[C@H]2Cc3cc(O)cc(O)c3C(=O)O2)O1 [Compound 1, cladosporin, reference compound]	38 nM	> 2000 nM	73 nM	> 50000 nM	20 mL/min/g	4 nM	–	–	–
O=C(NCC1CCCCC1)c1cc(=O)c2ccccc2o1 [Compound 2]	22 nM	> 2000 nM	190 nM	> 50000 nM	> 50 mL/min/g	4 nM	> 50 mL⋅min^−1⋅g^−1	–	–
O=C(NCC1CCCCC1)c1cc(=O)c2cc(F)ccc2o1 [Compound 3]	39 nM	> 2000 nM	290 nM	> 50000 nM	23 mL/min/g	14 nM	–	–	–
O=C(NCC1(O)CCCCC1)c1cc(=O)c2cc(F)ccc2o1 [Compound 4]	8 nM	740 nM	180 nM	32000 nM	3 mL/min/g	5 nM	–	–	–
O=C(NCC1(O)CCC(F)(F)CC1)c1cc(=O)c2cc(F)ccc2o1 [Compound 5]	130 nM	1800 nM	270 nM	49000 nM	1 mL/min/g	15 nM	1 mL⋅min^−1⋅g^−1	180 fold	120 fold
